Like-named read-outs stand apart in the source and are kept apart here.
Assays:
[1] = humans; ref 14 (Wijnands et al.); cited from earlier work
CYP1A = conditions: hepatic microsomes from Beagles; ref 13 (Regmi et al.); cited from earlier work
[2] = p-acetaminophen injected into porcine animals; ref 7 (Qiu et al.); cited from earlier work
[3] = healthy cattle, oral administration; ref 8 (Sawaguchi et al.); cited from earlier work
[4] = Pharmacokinetics of p-acetaminophen in Bactrian camels, substrate only; type: in vivo, Bactrian camel; conditions: Group 1, substrate only, 4 mg/kg intramuscular
[5] = rats, intramuscular injection; ref 9 (Yamasaki et al.); cited from earlier work
CYP1A enzyme = type: in vivo, Bactrian camel; conditions: Group 2, inhibitor (lomefloxacin) + substrate; p-acetaminophen 4 mg/kg intramuscular

CCn1cc(C(=O)O)c(=O)c2cc(F)c(N3CCNCC3)nc21 [enoxacin]
effect on total body clearance of theophylline [1]: significantly decreased

CCN1CCN(c2cc3c(cc2F)c(=O)c(C(=O)O)cn3C2CC2)CC1 [enrofloxacin]
CYP1A-inhibiting effect (CYP1A): inhibited CYP1A in a non-competitive manner

CCn1cc(C(=O)O)c(=O)c2cc(F)c(N3CCNCC3)cc21 [norfloxacin]
CYP1A-inhibiting effect (CYP1A): inhibited CYP1A in a non-competitive manner

CC1COc2c(N3CCN(C)CC3)c(F)cc3c(=O)c(C(=O)O)cn1c23 (centres unmarked) [ofloxacin]
CYP1A-inhibiting effect (CYP1A): inhibited CYP1A in a non-competitive manner

C[C@@H]1CN(c2c(F)c(F)c3c(=O)c(C(=O)O)cn(C4CC4)c3c2F)C[C@H](C)N1 [orbifloxacin]
CYP1A-inhibiting effect (CYP1A): inhibited CYP1A in a non-competitive manner

CC(=O)Nc1ccc(O)cc1 [p-acetaminophen]
AUC0-t [2]: 23.95 ± 6.98 µg·h/mL
T1/2 [2]: 1.76 ± 0.91 h
Tmax [2]: 24.6 ± 7.8 min
MRT [3]: 4.70 ± 0.93 h
T1/2 [3]: 2.41 ± 0.58 h
Tmax [3]: 1.40 ± 0.55 h
Vd (volume of distribution under steady-state) [4]: 4,416.8 ± 138.23 mL/kg
AUC0-t ([4]; plasma): 5.73 ± 0.31 µg·h/mL
AUC0-∞ ([4]; plasma): 6.01 ± 0.63 µg·h/mL
Cmax ([4]; plasma): 0.96 ± 0.43 µg/mL
Tmax ([4]; plasma): 1.70 ± 0.51 h
MRT [5]: 24 ± 1.8 min
T1/2 [5]: 18 ± 1.2 min
AUC0-t (CYP1A enzyme): 8.88 ± 0.23 µg·h/mL
AUC0-∞ (CYP1A enzyme): 9.15 ± 0.63 µg·h/mL
Cmax (CYP1A enzyme): 1.22 ± 0.66 µg/mL
Tmax (CYP1A enzyme): 50 ± 22.2 min
Vd (volume of distribution under steady-state) (CYP1A enzyme): 3,934.0 ± 90.03 mL/kg

From PMC6538516 (Journal of Veterinary Science, 2019)
